Drawing on PMC10380188, “A Random Forest Model for Peptide Classification Based on Virtual Docking Data” (International Journal of Molecular Sciences, 2023), this text covers Kd for 52 molecules.

No end group written: not given here.

In assay [1] the target is porcine epidemic diarrhea virus spike (PEDV S) protein (Porcine epidemic diarrhea virus, UniProt Q91AV1). The assay is described as follows: SPR affinity assay, KD of six-amino-acid peptides to PEDV S protein. The class given is binding. The procedure:
(§1) Equilibrium dissociation constants (KD) between all 194 (115 + 79) peptides and their receptor proteins were determined by SPR using the Biacore X100 instrument. Proteins were coupled to the CM5 chip by the EDC/NHS(1-Ethyl-3-(3′-dimethylaminopropyl) carbodiimide/n-Hydroxysuccinimide) method (GE HealthCare, Chicago, IL, USA), followed by running HBS-EP (HEPES Buffered Saline–EDTA–Surfactant P20) buffer (GE HealthCare, USA) that flowed through the entire pipeline. The peptide was diluted in six different concentrations with HBS-EP buffer and flowed into the machine from low to high, and its resonance signal change was detected separately. In each cycle, the peptide solution flowed through the chip at a constant flow rate of 30 μL/min for 120 s, and the peptide reacted fully with the protein, followed by HBS-EP buffer flowing through the chip at the same rate for 120 s, and the peptide was partially dissociated from the protein. Finally, the peptides bound to the proteins were completely eluted off with 0.25% SDS solution for the next cycle until all peptides were detected. The KD between each peptide and protein was calculated and analyzed using Biacore X100 Evaluation Software (Version 2.1) to determine its affinity.
Following the methods described above, a totally new dataset was constructed to further verify the performance of the constructed model. […] Meanwhile, the PEDV peptides were synthesized and tested by SPR successively, and the obtained KD values were further used to define the class of each peptide based on the criteria described above. Finally, the new 6-amino-acid peptide dataset for PEDV S combining all scores of the important features and class information was built to further test the predictive correctness of the RF model (Supplementary Table S2).

Assay [2] addresses T1, amyloid β-protein 42 (Aβ-42) (Homo sapiens, UniProt P05067).
T1 construct: amyloid β-protein 42 (Aβ-42, n = 79)
The assay is described as follows: SPR affinity assay (Biacore X100), KD of peptides to Aβ-42. The class given is binding. The following applies: Biacore X100, protein coupled to CM5 chip, HBS-EP buffer, six peptide concentrations, same value repeated on each docking-run line. The method, then:
as §1

[3] abbreviates: Receptor PEDV S, SPR, value repeated on each docking-pose line of the peptide.
The mark [4] stands for this setting: SPR, receptor PEDV S, value repeated on each of the 20 docking-pose lines per peptide.
[5] abbreviates: SPR, peptide to PEDV S protein, value repeated on each docking-pose line of the peptide.
The mark [6] stands for this setting: receptor PEDV S, PEDV peptide dataset used for model performance validation, same value repeated on each line of a peptide.
Setting [7] is: Receptor PEDV S, PEDV peptide dataset used for model performance validation, value repeated on each docking-pose line.
Setting [8] is: receptor PEDV S, PEDV peptide dataset for model performance validation, value repeated on each of the peptide's 20 lines.

One may read the Kd as the constant that tells how readily two partners part at equilibrium.

Chain of porcine epidemic diarrhea virus spike (PEDV S) protein (Q91AV1 26-1383): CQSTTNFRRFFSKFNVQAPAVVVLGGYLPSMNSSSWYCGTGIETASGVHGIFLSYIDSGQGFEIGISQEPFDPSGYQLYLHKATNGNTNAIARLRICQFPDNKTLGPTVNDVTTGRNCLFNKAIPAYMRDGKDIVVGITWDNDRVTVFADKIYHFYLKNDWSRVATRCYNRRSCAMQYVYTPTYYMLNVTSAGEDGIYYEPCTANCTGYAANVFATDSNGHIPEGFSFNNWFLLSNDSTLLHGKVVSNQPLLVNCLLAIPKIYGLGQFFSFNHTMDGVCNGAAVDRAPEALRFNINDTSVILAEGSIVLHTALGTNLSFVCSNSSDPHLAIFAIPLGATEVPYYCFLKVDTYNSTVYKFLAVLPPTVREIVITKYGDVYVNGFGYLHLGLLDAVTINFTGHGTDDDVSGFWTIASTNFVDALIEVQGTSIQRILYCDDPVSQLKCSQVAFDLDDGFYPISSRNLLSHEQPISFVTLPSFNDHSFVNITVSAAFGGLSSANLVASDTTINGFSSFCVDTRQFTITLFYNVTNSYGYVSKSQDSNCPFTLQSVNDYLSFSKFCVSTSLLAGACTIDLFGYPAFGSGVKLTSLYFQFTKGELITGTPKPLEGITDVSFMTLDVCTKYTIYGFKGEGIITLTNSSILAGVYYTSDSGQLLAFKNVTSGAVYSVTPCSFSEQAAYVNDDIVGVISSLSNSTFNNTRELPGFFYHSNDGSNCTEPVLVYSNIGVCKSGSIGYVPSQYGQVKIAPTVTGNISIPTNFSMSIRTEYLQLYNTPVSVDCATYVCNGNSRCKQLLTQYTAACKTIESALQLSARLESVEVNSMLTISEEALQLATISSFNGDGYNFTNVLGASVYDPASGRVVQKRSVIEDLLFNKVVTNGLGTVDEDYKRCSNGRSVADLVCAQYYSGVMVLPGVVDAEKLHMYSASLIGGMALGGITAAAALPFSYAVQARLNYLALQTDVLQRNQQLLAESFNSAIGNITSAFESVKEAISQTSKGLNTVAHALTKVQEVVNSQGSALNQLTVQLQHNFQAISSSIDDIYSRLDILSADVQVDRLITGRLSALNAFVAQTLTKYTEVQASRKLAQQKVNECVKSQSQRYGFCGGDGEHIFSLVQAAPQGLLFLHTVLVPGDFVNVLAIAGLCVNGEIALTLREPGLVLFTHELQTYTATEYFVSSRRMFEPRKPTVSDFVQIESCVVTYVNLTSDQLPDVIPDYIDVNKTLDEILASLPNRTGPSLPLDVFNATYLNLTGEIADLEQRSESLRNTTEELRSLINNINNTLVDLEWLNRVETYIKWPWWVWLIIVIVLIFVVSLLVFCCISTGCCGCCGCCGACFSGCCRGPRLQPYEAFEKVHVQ
T1 sequence (P05067 672-713 limits assumed): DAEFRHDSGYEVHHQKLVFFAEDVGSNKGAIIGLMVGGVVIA

RKQHIS [DPL_1056] showed a Kd in assay [1] (setting [3]) of 384 µM.

Consider FWKHDI [DPL_1017], for which, in assay [1] (setting [4]), the Kd amounted to 56.2 µM.

In assay [1] (setting [5]), FWKYAW [DPL_1028] showed a Kd of 56.8 µM.

Turning to RKQKDW [DPL_1049], in assay [1] (setting [6]), binding was characterised by a dissociation constant (Kd) of 0.35 µM.

As to FWKQNK [DPL_1013], in assay [1] (setting [4]), the Kd was determined as 1190 µM.

Molecule `N=C(N)NCCC[C@H](NC(=O)[C@H](CCCCN)NC(=O)[C@H](CO)NC(=O)[C@H](CCCCN)NC(=O)[C@H](Cc1c[nH]c2ccccc12)NC(=O)[C@@H](N)Cc1ccccc1)C(=O)O` [DPL_1031] yielded a Kd in assay [1] (setting [7]) of 2.16 µM.

WHFWIV [DPL_1042] gave a Kd in assay [1] (setting [7]) of 15.2 µM.

In the case of RKQSHK [DPL_1052], in assay [1] (setting [6]), the Kd turned out to be 44.5 µM.

In the case of FWKKED [DPL_1020], the Kd in assay [1] (setting [4]) came to 7.04 µM.

The molecule RKQHLL [DPL_1055] returned a Kd in assay [1] (setting [3]) of 1 µM.

As to FWKHEK [DPL_1025], in assay [1] (setting [5]), the Kd was determined as 132 µM.

As to FWKPKR [DPL_1021], binding in assay [1] (setting [4]) was characterised by a dissociation constant (Kd) of 39.5 µM.

FWKSWH [DPL_1016] registered a Kd in assay [1] (setting [4]) of 34.9 µM.

Turning to WHFWWQ [DPL_1044], in assay [1] (setting [7]), the Kd was found to be 88.5 µM.

In turn, RKQWPQ [DPL_1050] displayed a Kd in assay [1] (setting [6]) of 0.556 µM.

The molecule RKQFDK [DPL_1051] registered a Kd in assay [1] (setting [6]) of 0.00736 µM.

In turn, FWKPDQ [DPL_1019] registered a Kd in assay [1] (setting [4]) of 16.7 µM.

With FWKISH [DPL_1030], binding in assay [1] (setting [7]) was put at a Kd of 28 µM.

For the molecule WHFCQH [DPL_1038], the affinity in assay [1] (setting [7]), expressed as Kd, was 0.16 µM.

Turning to FWKLWS [DPL_1024], in assay [1] (setting [5]), the Kd came out at 0.987 µM.

In turn, WHFEYF [DPL_1043] came in with a Kd in assay [1] (setting [7]) of 43.7 µM.

As for WHFKYR [DPL_1041], the Kd in assay [1] (setting [7]) stood at 0.0015 µM.

As for FWKEAK [DPL_1032], in assay [1] (setting [7]), the Kd stood at 7.72 µM.

KHQWKY [DPL_1062] displayed a Kd in assay [1] (setting [3]) of 326 µM.

YVRHGH [DPL_1069] had a Kd in assay [2] of 37.1 µM.

In assay [1] (setting [7]), FWKAKQ [DPL_1033] returned a Kd of 45.5 µM.

Molecule FWKWHW [DPL_1014] came in with a Kd in assay [1] (setting [4]) of 0.136 µM.

RKQGVK [DPL_1054] registered a Kd in assay [1] (setting [6]) of 192 µM.

With WHFNRP [DPL_1046], binding in assay [1] (setting [7]) was put at a Kd of 65.2 µM.

The molecule KHQVHR [DPL_1064] had a Kd in assay [1] (setting [8]) of 9.82 µM.

The molecule WHFHWP [DPL_1045] yielded a Kd in assay [1] (setting [7]) of 176 µM.

On to FWKHRI [DPL_1029], for which, in assay [1] (setting [5]), the Kd came to 36 µM.

Take FWKQNKCR [DPL_1034]: the affinity in assay [1] (setting [7]), expressed as Kd, was 24.2 µM.

In assay [1] (setting [6]), WHFMIK [DPL_1048] returned a Kd of 0.13 µM.

In assay [1] (setting [8]), KHQKRC [DPL_1067] displayed a Kd of 0.139 µM.

In assay [1] (setting [4]), FWKYHE [DPL_1015] came in with a Kd of 43.4 µM.

In assay [1] (setting [7]), WHFSKC [DPL_1036] yielded a Kd of 3.22 µM.

The molecule KHQAHH [DPL_1060] came in with a Kd in assay [1] (setting [3]) of 0.0431 µM.

Consider WHFQNQ [DPL_1037], for which, in assay [1] (setting [7]), binding was characterised by a dissociation constant (Kd) of 3.23 µM.

In the case of WHFMIY [DPL_1040], the Kd in assay [1] (setting [7]) is 179 µM.

RKQHCK [DPL_1057] returned a Kd in assay [1] (setting [3]) of 1.53 µM.

On to KHQHFG [DPL_1063], for which the affinity in assay [1] (setting [8]), expressed as Kd, was 9.99 µM.

As for FWKFNE [DPL_1027], in assay [1] (setting [5]), the Kd amounted to 56.6 µM.

FWKYNT [DPL_1023] came in with a Kd in assay [1] (setting [5]) of 32.5 µM.

Turning to RKQICW [DPL_1053], the affinity in assay [1] (setting [6]), expressed as Kd, was 21.8 µM.

The molecule FWKQNKFL [DPL_1035] showed a Kd in assay [1] (setting [7]) of 15 µM.

With WHFFKT [DPL_1039], in assay [1] (setting [7]), the Kd turned out to be 25.7 µM.

The molecule FWKWWW [DPL_1026] came in with a Kd in assay [1] (setting [5]) of 17.7 µM.

The molecule FWKFWK [DPL_1018] returned a Kd in assay [1] (setting [4]) of 25.4 µM.

The molecule WHFGSK [DPL_1047] had a Kd in assay [1] (setting [6]) of 69.8 µM.

For RKQYWQ [DPL_1058], the Kd in assay [1] (setting [3]) came out at 728 µM.

FWKCDV [DPL_1022] displayed a Kd in assay [1] (setting [5]) of 116 µM.
